Laboratory results published in PMC10222328 (Pharmaceuticals, 2023).

Test: Acute oral toxicity evaluation in rats
Format: in vivo, Wistar albino rats
Settings: single oral dose 10 mg/kg, after 14 days, (absolute organ weight × 100%)/body weight
Procedure: Healthy male rats (n = 24, three rats per group, body weight 180–200 g) were used for conducting an acute oral toxicity study. Animals were divided into the following groups: a control group that included rats that received a single dose of 1% DMSO and experimental groups that involved rats that received compounds 1–7 in the single dose of 10 mg/kg.
After oral administration of the aforementioned agents, rats were kept in single cages and monitored during 14 days. Food and water intake, as well as body weight, were measured daily. All the behavioral changes and any signs of toxicity were monitored daily during 2-week protocol (fur and skin, eyes, salivation, respiration, urination (color), faeces consistency, somatomotor activity, and other alterations in behavior pattern). After accomplishing 14 days, animals were sacrificed and organ weight (liver, kidney, stomach, and heart) was recorded. Relative organ weight was calculated as follows:(absolute organ weight × 100%)/body weight of rat on the day of sacrifice.(1)

COc1ccc2cc([C@H](C)C(=O)NC(=S)Nc3ccc(F)cc3)ccc2c1 [Compound 1, (S)-N-((4-fluorophenyl)carbamothioyl)-2-(6-methoxynaphthalen-2-yl)propanamide]
Relative organ weight, heart: 0.32 ± 0.02 | Relative organ weight, kidney: 0.31 ± 0.03 | Relative organ weight, liver: 2.73 ± 0.24 | Relative organ weight, stomach: 0.54 ± 0.05

CCOC(=O)C(Cc1ccccc1)NC(=S)NC(=O)C(C)c1ccc2cc(OC)ccc2c1 [Compound 6, Ethyl(((S)-2-(6-methoxynaphthalen-2-yl)propanoyl)carbamothioyl)-L-phenylalaninate]
Relative organ weight, heart: 0.34 ± 0.02 | Relative organ weight, kidney: 0.35 ± 0.05 | Relative organ weight, liver: 3.01 ± 0.29 | Relative organ weight, stomach: 0.55 ± 0.03

COC(=O)[C@H](Cc1cn(C)c2ccccc12)NC(=S)NC(=O)[C@@H](C)c1ccc2cc(OC)ccc2c1 [Compound 7, Methyl-N^α-(((S)-2-(6-methoxynaphthalen-2-yl)propanoyl)carbamothioyl)-1-methyltryptophanate]
Relative organ weight, heart: 0.33 ± 0.03 | Relative organ weight, kidney: 0.29 ± 0.03 | Relative organ weight, liver: 2.64 ± 0.46 | Relative organ weight, stomach: 0.50 ± 0.04

CCOc1ccc(NC(=S)NC(=O)[C@@H](C)c2ccc3cc(OC)ccc3c2)cc1 [Compound 3, (S)-N-((4-ethoxyphenyl)carbamothioyl)-2-(6-methoxynaphthalen-2-yl)propanamide]
Relative organ weight, heart: 0.31 ± 0.03 | Relative organ weight, kidney: 0.32 ± 0.06 | Relative organ weight, liver: 2.85 ± 0.17 | Relative organ weight, stomach: 0.50 ± 0.05

COc1ccc2cc([C@H](C)C(=O)NC(=S)Nc3ccc(C(C)=O)cc3)ccc2c1 [Compound 5, (S)-N-((4-acetylphenyl)carbamothioyl)-2-(6-methoxynaphthalen-2-yl)propanamide]
Relative organ weight, heart: 0.31 ± 0.03 | Relative organ weight, kidney: 0.30 ± 0.03 | Relative organ weight, liver: 2.97 ± 0.33 | Relative organ weight, stomach: 0.53 ± 0.04

COc1cccc(NC(=S)NC(=O)[C@@H](C)c2ccc3cc(OC)ccc3c2)c1 [Compound 4, (S)-2-(6-methoxynaphthalen-2-yl)-N-((3-methoxyphenyl)carbamothioyl)propanamide]
Relative organ weight, heart: 0.30 ± 0.03 | Relative organ weight, kidney: 0.33 ± 0.07 | Relative organ weight, liver: 2.45 ± 0.15 | Relative organ weight, stomach: 0.50 ± 0.05

COc1ccc(NC(=S)NC(=O)[C@@H](C)c2ccc3cc(OC)ccc3c2)cc1 [Compound 2, (S)-2-(6-methoxynaphthalen-2-yl)-N-((4-methoxyphenyl)carbamothioyl)propanamide]
Relative organ weight, heart: 0.33 ± 0.04 | Relative organ weight, kidney: 0.34 ± 0.04 | Relative organ weight, liver: 3.07 ± 0.38 | Relative organ weight, stomach: 0.57 ± 0.04
